Results published in paper PMC9516332 (Frontiers in Oncology, 2022).

Legend:
Assay in all cases: Kinase panel profiling at 1 µmol/L (MSA or IMAP), percentage inhibition
Type in all cases: biochemical
[1] = biological target: panel of 255 wild-type kinases (Homo sapiens, UniProt O14578); conditions: kinase CRIK; 1 µmol/L single concentration; read-out: %-inhibition at 1 µmol/L, CRIK
[2] = biological target: panel of 255 wild-type kinases (Homo sapiens, UniProt P24723); conditions: kinase PKCη; 1 µmol/L single concentration; read-out: %-inhibition at 1 µmol/L, PKCη
[3] = biological target: panel of 255 wild-type kinases (Homo sapiens, UniProt P49760); conditions: kinase CLK2; 1 µmol/L single concentration; read-out: %-inhibition at 1 µmol/L, CLK2
[4] = biological target: panel of 255 wild-type kinases (Homo sapiens, UniProt P51451); conditions: BLK kinase assay, 1 µmol/L single concentration; for inhibition at 1 µM: read-out: %-inhibition BLK
[5] = biological target: panel of 255 wild-type kinases (Homo sapiens, UniProt Q14289); conditions: kinase PYK2; 1 µmol/L single concentration; read-out: %-inhibition at 1 µmol/L, PYK2
[6] = biological target: T1, panel of 255 wild-type kinases (Homo sapiens, UniProt Q15139); conditions: kinase PKD1; 1 µmol/L single concentration; read-out: %-inhibition at 1 µmol/L, PKD1
T1 sequence (Q15139 1-912): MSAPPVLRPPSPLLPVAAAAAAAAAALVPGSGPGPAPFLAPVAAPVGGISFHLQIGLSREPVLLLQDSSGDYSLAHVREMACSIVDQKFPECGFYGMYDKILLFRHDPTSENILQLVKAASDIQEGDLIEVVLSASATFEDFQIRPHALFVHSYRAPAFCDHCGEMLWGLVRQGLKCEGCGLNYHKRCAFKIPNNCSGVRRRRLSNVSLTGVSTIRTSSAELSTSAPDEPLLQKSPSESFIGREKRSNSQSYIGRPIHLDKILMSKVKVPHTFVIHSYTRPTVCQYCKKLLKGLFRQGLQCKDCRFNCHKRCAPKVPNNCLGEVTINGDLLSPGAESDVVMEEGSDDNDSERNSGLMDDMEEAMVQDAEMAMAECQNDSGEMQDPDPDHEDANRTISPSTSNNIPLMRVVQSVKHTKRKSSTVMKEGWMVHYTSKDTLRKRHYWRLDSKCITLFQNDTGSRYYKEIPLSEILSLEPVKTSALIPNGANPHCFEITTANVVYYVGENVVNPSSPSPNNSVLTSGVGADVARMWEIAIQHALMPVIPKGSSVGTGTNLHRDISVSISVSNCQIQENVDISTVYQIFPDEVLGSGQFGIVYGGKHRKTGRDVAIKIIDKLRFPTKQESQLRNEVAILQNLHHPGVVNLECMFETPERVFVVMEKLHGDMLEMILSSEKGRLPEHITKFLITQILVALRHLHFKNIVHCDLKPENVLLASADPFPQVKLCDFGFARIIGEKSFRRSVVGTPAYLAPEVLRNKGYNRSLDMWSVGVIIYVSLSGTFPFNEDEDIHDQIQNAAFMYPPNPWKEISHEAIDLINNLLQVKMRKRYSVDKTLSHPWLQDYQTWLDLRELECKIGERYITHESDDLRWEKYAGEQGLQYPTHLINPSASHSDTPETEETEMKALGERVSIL

[7] = biological target: panel of 255 wild-type kinases (Homo sapiens, UniProt Q9P286); conditions: PAK5; 1 µmol/L single concentration; read-out: %-inhibition, PAK5
[8] = biological target: panel of 255 wild-type kinases (Homo sapiens, UniProt Q9UBS0); conditions: p70S6Kβ; 1 µmol/L single concentration; read-out: %-inhibition, p70S6Kβ
[9] = biological target: T2, panel of 255 wild-type kinases (Homo sapiens, UniProt Q9UL54); conditions: kinase TAOK2; 1 µmol/L single concentration; read-out: %-inhibition at 1 µmol/L, TAOK2
T2 sequence (Q9UL54 1-1235): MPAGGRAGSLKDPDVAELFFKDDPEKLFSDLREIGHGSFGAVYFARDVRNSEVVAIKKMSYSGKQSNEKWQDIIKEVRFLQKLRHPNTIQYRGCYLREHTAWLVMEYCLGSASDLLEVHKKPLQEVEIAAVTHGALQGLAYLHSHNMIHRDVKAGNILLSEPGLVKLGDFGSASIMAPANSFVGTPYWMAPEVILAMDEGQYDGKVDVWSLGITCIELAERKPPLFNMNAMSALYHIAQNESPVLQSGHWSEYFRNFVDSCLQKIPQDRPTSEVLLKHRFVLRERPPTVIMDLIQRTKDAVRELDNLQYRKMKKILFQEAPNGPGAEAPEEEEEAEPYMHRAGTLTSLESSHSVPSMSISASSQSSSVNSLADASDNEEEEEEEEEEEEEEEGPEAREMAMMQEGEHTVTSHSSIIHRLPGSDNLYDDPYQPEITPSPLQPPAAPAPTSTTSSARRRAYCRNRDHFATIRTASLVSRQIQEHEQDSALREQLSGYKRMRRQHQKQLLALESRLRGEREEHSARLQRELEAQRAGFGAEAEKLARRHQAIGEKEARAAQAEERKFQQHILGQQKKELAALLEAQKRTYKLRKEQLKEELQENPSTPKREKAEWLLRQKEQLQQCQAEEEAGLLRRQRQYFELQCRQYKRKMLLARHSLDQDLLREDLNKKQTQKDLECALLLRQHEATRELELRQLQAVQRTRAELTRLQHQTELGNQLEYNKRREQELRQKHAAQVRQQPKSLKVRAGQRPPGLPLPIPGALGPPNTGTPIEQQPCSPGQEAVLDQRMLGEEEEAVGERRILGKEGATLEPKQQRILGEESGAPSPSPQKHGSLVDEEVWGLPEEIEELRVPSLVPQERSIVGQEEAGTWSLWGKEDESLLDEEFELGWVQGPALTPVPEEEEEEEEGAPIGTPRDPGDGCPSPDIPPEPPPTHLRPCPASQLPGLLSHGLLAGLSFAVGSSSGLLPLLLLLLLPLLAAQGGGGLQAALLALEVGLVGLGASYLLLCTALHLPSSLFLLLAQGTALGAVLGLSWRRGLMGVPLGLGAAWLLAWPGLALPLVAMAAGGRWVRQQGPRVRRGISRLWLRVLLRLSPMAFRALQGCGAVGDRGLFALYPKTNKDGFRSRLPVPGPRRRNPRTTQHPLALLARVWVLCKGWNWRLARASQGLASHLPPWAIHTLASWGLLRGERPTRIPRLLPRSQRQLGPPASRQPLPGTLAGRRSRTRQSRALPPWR

[10] = biological target: panel of 255 wild-type kinases (Homo sapiens, UniProt Q9UQM7); conditions: CaMK2α kinase assay; 1 µmol/L single concentration; read-out: %-inhibition CaMK2α

SMILES | inhibition at 1 µM [1] [%] | inhibition at 1 µM [2] [%] | inhibition at 1 µM [3] [%] | %-inhibition BLK [4] [%] | inhibition at 1 µM [5] [%] | inhibition at 1 µM [6] [%] | inhibition at 1 µM [7] [%] | inhibition at 1 µM [8] [%] | inhibition at 1 µM [9] [%] | inhibition at 1 µM [10] [%] | inhibition at 1 µM [4] [%]
C=CC(=O)N1CCC([C@@H]2CCNc3c(C(N)=O)c(-c4ccc(Oc5ccccc5)cc4)nn32)CC1 [zanubrutinib] | -2.4 | 4.22 | 7.62 | 98 | 5.37 | 5 | 0.606 | -0.467 | 4 | 2 | 
CCN1CCN(c2ccc(Nc3cc(N(C)C(=O)Nc4c(Cl)c(OC)cc(OC)c4Cl)ncn3)cc2)CC1 [infigratinib] | -2.56 | 2 | 15 |  | 13 | 11 | 2.49 | 5.43 | 91 | -1.22 | 21
COC(=O)N[C@@H](C)CNc1nccc(-c2cn(C(C)C)nc2-c2cc(Cl)cc(NS(C)(=O)=O)c2F)n1 [encorafenib] | 2.72 | 13 | 0.465 |  | 4 | 0.18 | 0.399 | 8 | -0.719 | -2.55 | 10
CCc1nc(C(N)=O)c(Nc2ccc(N3CCC(N4CCN(C)CC4)CC3)c(OC)c2)nc1NC1CCOCC1 [gilteritinib] | 75 | 13 | 39 |  | 93 | 52 | 92 | 23 | 9 | 36 | 94
CN1CCN(c2ccc(C(=O)Nc3n[nH]c4ccc(Cc5cc(F)cc(F)c5)cc34)c(NC3CCOCC3)c2)CC1 [entrectinib] | -9 | 19 | 28 |  | 96 | 1.46 | 25 | 0.699 | 3 | 12 | 86
COc1cc2ncnc(Nc3ccc(F)c(Cl)c3)c2cc1NC(=O)/C=C/CN1CCCCC1 [dacomitinib] | 32 | 11 | -0.6 |  | 1.4 | 9.49 | 4.29 | -0.889 | 1 | -1.13 | 77
Cn1cc(-c2cc3c(N4CCN(c5ncc([C@@](C)(N)c6ccc(F)cc6)cn5)CC4)ncnn3c2)cn1 [avapritinib] | -0.548 | -5 | 11 |  | 1 | 6.4 | 4.51 | 6 | 6 | -2.45 | 50
CCn1c(=O)c(-c2cc(NC(=O)Nc3ccccc3)c(F)cc2Br)cc2cnc(NC)cc21 [ripretinib] | 20 | 0.077 | -4 |  | 19 | 15 | 1.9 | 2.19 | 89 | -5.68 | 26
